Experimental data reported in the METLIN SMRT retention time set (Domingo-Almenara et al. 2019).

Assay: gradient 5% acetonitrile 3 min, to 50% in 2 min, to 85% in 15 min, held 3 min, 100 µL/min
Settings: column: Zorbax Extend-C18 2.1 x 50 mm; eluents: water / acetonitrile, 0.1% formic acid
Summary of the method: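 Data were gathered over 3 months by HPLC coupled to a quadrupole time-of-flight mass spectrometer, operated in positive and negative ionization mode. Mixtures of ~100 pure standards ran on a Zorbax Extend-C18 column (2.1 × 50 mm, 1.8 μm) at 100 μL/min, with water and acetonitrile each containing 0.1% formic acid and dead and dwell volumes of 40 μL and 900 μL. Retention time was read from adduct peaks picked by computer and checked manually.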

Row | RP-LC retention time | SMILES
1 | 1140 s | CCn1c(=O)c2ccccc2n(Cc2nc(-c3ccc(Cl)c(F)c3)no2)c1=O
2 | 767 s | O=C(NC1CCN(c2cc(-c3ccccc3)[nH]n2)C1)c1ccc(F)c(Cl)c1 (configuration not stated)
3 | 870 s | CC(=O)Nc1onc(C)c1-c1ccc(C)c(S(=O)(=O)NCc2ccc(Br)cc2)c1
4 | 1040 s | O=c1c2sccc2n(Cc2nc(-c3ccccc3)no2)c(=O)n1-c1ccc(Cl)cc1
5 | 579 s | CCN1CCN(CCCNC(=O)CN2C(=O)C3CCCCN3c3ccc(C(=O)N(C)C)cc32)CC1 (configuration not stated)
6 | 605 s | CCCCNC(=O)Cn1c(CC)nc2c(c1=O)CN(Cc1ccccc1)CC2
7 | 754 s | CNC(=O)Nc1ccc(C2(C(=O)N3CCN(c4ccccc4)CC3)CCC2)cc1
8 | 610 s | COCc1nncn1C1CN(C(=O)Cc2cc(OC)ccc2OC)C1
9 | 547 s | COC(=O)CC1=CC(SCC(=O)NC2CCc3ccccc32)=Nc2ccccc2N1 (configuration not stated)
10 | 663 s | CCOC(=O)C1=C(CN(C)Cc2ccccc2)NC(=O)NC1c1ccc(F)cc1 (configuration not stated)
11 | 679 s | Cn1nc(CN2CCCC2)c2c1CCN(S(=O)(=O)c1ccc(C(F)(F)F)cc1)C2
12 | 906 s | Cc1ccccc1Nc1c(-c2ccccc2)nc2cnccn12
13 | 856 s | CCn1cc(-c2ccc(C)cc2)cc1C(=O)NCCCN1CCCC1=O
14 | 866 s | CCCn1cc(CCNS(=O)(=O)c2cccc(C)c2)c2cccnc21
15 | 703 s | O=C(Nc1ccccc1)C1CCCN(c2cnc3nccnc3c2)C1 (configuration not stated)
16 | 745 s | CC(=O)Nc1ccc(SCC(=O)Nc2ccc(OC(F)(F)F)cc2)nn1
17 | 649 s | CC1CCC(NC(=O)C2CCN(c3nc4ccccc4[nH]3)CC2)CC1 (configuration not stated)
18 | 587 s | CC(=O)N1CCC2(CC1)OC(=O)C(C)=C2C(=O)NCCCN1CC(C)CC(C)C1 (configuration not stated)
19 | 662 s | O=C(Cn1c(CN2CCCCCC2)nc2ccccc21)N1CCCCC1
20 | 572 s | O=C1CCN(C(=O)C2CCN(C(=O)CN3CCCC3=O)CC2)CCCCCCN1
21 | 873 s | CCC(C)NC(=O)CSc1nccc(N2CCN(c3cc(C)ccc3C)CC2)n1 (configuration not stated)
22 | 726 s | Cc1ccc2nc(-c3ccccc3)c(Nc3ccccc3C)n2c1

Row | RP-LC retention time | SMILES
23 | 790 s | CC1=C(c2ccc(C)c(C)c2)S(=O)(=O)N=C1N1CCCN(C(=O)C2CCCO2)CC1 (configuration not stated)
24 | 600 s | NC(=O)Cc1csc(NC(=O)COc2ccc3c(c2)C(=O)CC3)n1
25 | 650 s | CC(C)C(=O)Nc1ccc(CCc2nc3ccc(C(=O)NC4CCCC4)cc3[nH]2)cc1
26 | 999 s | COC(=O)c1cc(S(=O)(=O)N2CCCC2C(=O)Nc2ccc(Br)cc2F)cn1C (configuration not stated)
27 | 1230 s | CCOC(=O)C(CC)n1nc2nc(Nc3ccc(C)cc3)cc(C)n2c1=O (configuration not stated)
28 | 804 s | CCOc1ccc(NC(=O)Cn2ccc3ccc(-c4nnc(C)o4)cc32)cc1
29 | 671 s | CCCOc1nccnc1N1CCC(NC(=O)Cc2cccnc2)C1 (configuration not stated)
30 | 803 s | Cc1nnc(N2CCCC(C(=O)NCCC3=CCCCC3)C2)c2nn(-c3ccccc3)c(C)c12 (configuration not stated)
31 | 1040 s | COc1ccc(S(=O)(=O)Cc2nc(-c3ccc(Br)cc3)no2)cc1
32 | 710 s | O=C(Cn1c2c(c3ccccc31)CCC2)NCCn1ncccc1=O
33 | 835 s | CCc1ccc2nc(Nc3ncc4c(n3)CC(c3ccc(F)cc3)CC4=O)nc(C)c2c1 (configuration not stated)
34 | 898 s | CC(C)CN1C(=O)CCc2cc(NS(=O)(=O)c3cccc(F)c3)ccc21
35 | 723 s | COc1ccc(C)cc1NC(=O)Cn1cnc2nc(N3CCC(C(=O)NC4CC4)CC3)sc2c1=O
36 | 628 s | Cc1ccc(S(=O)(=O)Nc2ccc(-c3cn4ccccc4n3)cc2)cc1
37 | 986 s | CCOc1ccc(-c2nc(C#N)c(N3CCN(C(=O)c4ccccc4Cl)CC3)o2)cc1
38 | 1030 s | Cc1ccc(C(=O)Nc2cc(-c3ccsc3)no2)c(C)c1
39 | 781 s | CCOc1ccccc1C(=O)N1CCN(c2cc(-c3cccs3)[nH]n2)CC1
40 | 900 s | Cc1noc(-c2cccc(OC3CN(C(=O)c4sccc4C)C3)c2)n1
41 | 884 s | COc1ccc(N2CC(c3nc(-c4ccc(OC)c(OC)c4)no3)CC2=O)cc1Cl (configuration not stated)
42 | 617 s | O=C(NC1CCOCC1)c1ccc(-c2cc(-c3cn[nH]c3-c3ccccn3)ccn2)cc1
43 | 883 s | CN(C1CCCCC1)S(=O)(=O)c1ccc(NC(=O)c2ccco2)cc1
44 | 995 s | O=C(COc1ccccc1Cl)Nc1cncc(-c2nc3ccccc3o2)c1

Row | RP-LC retention time | SMILES
45 | 619 s | COc1cc(C(=O)N2CCN(c3cc(N4CCCC4)nc(C)n3)CC2)cc(OC)c1OC
46 | 870 s | Cc1ccc(CNC(=O)C2CCN(C(=O)c3ncn4c3COC(c3ccc(Cl)cc3)C4)CC2)cc1 (configuration not stated)
47 | 706 s | CCOC(=O)c1[nH]c(C)c(CCC(=O)N2CCC(C(=O)NCCCOC(C)C)CC2)c1C
48 | 1100 s | CCOC(=O)c1noc2nc(C)nc(NCc3ccccc3OC)c12
49 | 788 s | O=S(=O)(Nc1ccc(Nc2ccc(-n3cccn3)nn2)cc1)c1ccc(F)cc1F
50 | 652 s | COc1ccccc1CCC(=O)NCC(=O)Nc1nc2ccccc2[nH]1
51 | 683 s | CCCNC(=O)C1CCCN1C(=O)c1ccc(NC(=O)C(C)(C)C)cc1 (configuration not stated)
52 | 646 s | Cc1noc(CNC(=O)C2CCN(S(=O)(=O)c3cccs3)CC2)n1
53 | 805 s | CCCNC(=O)CCc1nc2ccccc2n(CC(=O)Nc2ccc(OC)c(Cl)c2)c1=O
54 | 698 s | CC(C(=O)NCCCN1CCCC1=O)C1CCN(C(=O)c2cc3cc(Cl)ccc3[nH]2)CC1 (configuration not stated)
55 | 910 s | Cn1cnc2c(C(=O)NC3CCCCCC3)nn(-c3ccccc3)c2c1=O
56 | 606 s | Cc1ccc(NC(=O)N2CCc3nc[nH]c3C2)cc1F
57 | 712 s | O=C(O)CC(CC(=O)NCc1ccccc1)c1ccc(Br)cc1 (configuration not stated)
58 | 569 s | CN(C)C[C@@H]1CN(S(C)(=O)=O)C[C@H]1NC(=O)c1cccs1
59 | 1000 s | O=C1C2C=CC=CC2=NC(=S)N1CCN1CCC(=C(c2ccc(F)cc2)c2ccc(F)cc2)CC1 (configuration not stated)
60 | 593 s | COc1ccc(OCC(=O)N2CCN(c3cc(C)n4cnnc4n3)CC2)cc1
61 | 804 s | CCN1C(=O)c2c(C(=O)NCc3cccc(Cl)c3)ncn2CC1(C)C(=O)NC1CCCC1 (configuration not stated)
62 | 735 s | CCOC(=O)c1c[nH]c2c(C(=O)OCC)cccc2c1=O
63 | 593 s | Cc1cc(C)n(CCNC(=O)NCc2cccs2)n1
64 | 710 s | Cc1cc2c(cc1S(=O)(=O)N1CCCC1C(=O)N1CCCCC1)OC(C)C(=O)N2 (configuration not stated)
65 | 776 s | CCCNC(=O)Nc1ccc(NC(=O)N2CCCC(C(=O)NCC3CCCCC3)C2)cc1 (configuration not stated)
66 | 761 s | COc1ccc(Cl)cc1NC(=O)N1CCCC(Cn2cnc3cccnc32)C1 (configuration not stated)

Row | SMILES | RP-LC retention time
67 | CCC(CC)C(=O)N1CCC2(CC1)NCc1ccccc1-n1ccnc12 | 580 s
